12 compounds from patent publication US11541055B2, “Inhibitors of human immunodeficiency virus replication” (ViiV Healthcare UK (No. 5) LIMITED, priority 2018, dated 2023) can be followed below.

In series [1] the test system is recombinant NL4-3 virus (Renilla luciferase) in MT-2 cells. Description: HIV cell culture assay (antiviral activity, luciferase readout). Format: cell-based. The note with it: Renilla, NL43. The gist of the method: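 MT-2 cells were infected with recombinant NL4-3 virus carrying Renilla luciferase in place of part of nef. Cells were cultured 4–5 days with serially diluted compound, and luciferase was measured with a live-cell substrate. EC50 was calculated from the median effect equation.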

Series [2] can be described thus: Compound cytotoxicity, XTT-based colorimetric assay. The series is classed as cell-based. Conditions: human; uninfected MT2 cells, day 4, XTT. The gist of the method:
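Run under the antiviral-assay protocol but without virus. Viability was read on day 4 and CC50 values were derived from the readout.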
Background: Formazan colour is commonly taken as a measure of viable cells.

SMILES strings stand for the structures. pEC50: −log10 of the molar value.

The term pEC50 denotes the negative decadic logarithm of the EC50, by convention in mol/L. As usually defined, the CC50 is the concentration at which the toxic effect on the cells reaches its halfway point. Low readings indicate greater toxicity to the cells, high ones lower toxicity to the cells. Turning to `Cn1nc(NS(C)(=O)=O)c2c(Cl)ccc(-n3c([C@H](Cc4cc(F)cc(F)c4)NC(=O)Cn4nc(C(F)F)c5c4C(F)(F)[C@@H]4C[C@H]54)nc4cc(-c5ccccc5C(F)F)ccc4c3=O)c21` (atropisomer, axis not shown; (P)) [Example 12, N—((S)-1-((3P)-3-(4-chloro-1-methyl-3-(methylsulfonamido)-1H-indazol-7-yl)-7-(2-(difluoromethyl)phenyl)-4-oxo-3,4-dihydroquinazolin-2-yl)-2-(3,5-difluorophenyl)ethyl)-2-((3bS,4aR)-3-(difluoromethyl)-5,5-difluoro-3b,4,4a,5-tetrahydro-1H-cyclopropa[3,4]cyclopenta[1,2-c]pyrazol-1-yl)acetamide], in series [1], the pEC50 is 9.43. In series [2], this compound gave a CC50 at 4 days of more than 500 nM.

Turning to `Cc1ccc(-n2c([C@H](Cc3cc(F)cc(F)c3)NC(=O)Cn3nc(C(F)F)c4c3C(F)(F)[C@@H]3C[C@H]43)nc3cc(-c4cccnn4)ccc3c2=O)c2c1c(NS(C)(=O)=O)nn2C` (atropisomer, axis not shown) [Example 141, 2-[(2S,4R)-9-(difluoromethyl)-5,5-difluoro-7,8-diazatricyclo[4.3.0.0^2,^4]nona-1(6),8-dien-7-yl]-N-[(1S)-2-(3,5-difluorophenyl)-1-[3-(3-methanesulfonamido-1,4-dimethyl-1H-indazol-7-yl)-4-oxo-7-(pyridazin-3-yl)-3,4-dihydroquinazolin-2-yl]ethyl]acetamide], the pEC50 in series [1] is 9.89. The compound also had a CC50 at 4 days in series [2] of more than 500 nM.

Consider `Cc1ncncc1-c1ccc2c(=O)n(-c3ccc(Cl)c4c(NS(C)(=O)=O)nn(C)c34)c([C@H](Cc3cc(F)cc(F)c3)NC(=O)Cn3nc(C(F)F)c4c3C(F)(F)[C@@H]3C[C@H]43)nc2c1` (atropisomer, axis not shown; (P)) [Example 42, N—((S)-1-((3P)-3-(4-chloro-1-methyl-3-(methylsulfonamido)-1H-indazol-7-yl)-7-(4-methylpyrimidin-5-yl)-4-oxo-3,4-dihydroquinazolin-2-yl)-2-(3,5-difluorophenyl)ethyl)-2-((3bS,4aR)-3-(difluoromethyl)-5,5-difluoro-3b,4,4a,5-tetrahydro-1H-cyclopropa[3,4]cyclopenta[1,2-c]pyrazol-1-yl)acetamide], for which the pEC50 in series [1] is 10.13. Also, in series [2], the cytotoxic concentration (CC50) at 4 days was more than 500 nM.

Take `Cc1cc(C)nc(-c2ccc3c(=O)n(-c4ccc(Cl)c5c(NS(=O)(=O)C6CC6)nn(CC(F)F)c45)c([C@H](Cc4cc(F)cc(F)c4)NC(=O)Cn4nc(C(F)F)c5c4C(F)(F)[C@@H]4C[C@H]54)nc3c2)c1` (atropisomer, axis not shown; (P)) [Example 83, N—((S)-1-((3P)-3-(4-chloro-3-(cyclopropanesulfonamido)-1-(2,2-difluoroethyl)-1H-indazol-7-yl)-7-(4,6-dimethylpyridin-2-yl)-4-oxo-3,4-dihydroquinazolin-2-yl)-2-(3,5-difluorophenyl)ethyl)-2-((3bS,4aR)-3-(difluoromethyl)-5,5-difluoro-3b,4,4a,5-tetrahydro-1H-cyclopropa[3,4]cyclopenta[1,2-c]pyrazol-1-yl)acetamide]: in series [1], the pEC50 was 9.36. For the same compound, the CC50 at 4 days in series [2] is more than 500 nM.

Turning to `COc1ncc(-c2ccc3c(=O)n(-c4ccc(Cl)c5c(NS(C)(=O)=O)nn(CC(F)(F)F)c45)c([C@H](Cc4cc(F)cc(F)c4)NC(=O)Cn4nc(C(F)F)c5c4C(F)(F)[C@@H]4C[C@H]54)nc3c2)cn1` (atropisomer, axis not shown) [Example 116, N-[(1S)-1-{3-[4-chloro-3-methanesulfonamido-1-(2,2,2-trifluoroethyl)-1H-indazol-7-yl]-7-(2-methoxypyrimidin-5-yl)-4-oxo-3,4-dihydroquinazolin-2-yl}-2-(3,5-difluorophenyl)ethyl]-2-[(2S,4R)-9-(difluoromethyl)-5,5-difluoro-7,8-diazatricyclo[4.3.0.0^2,^4]nona-1(6),8-dien-7-yl]acetamide], the pEC50 in series [1] is 10.14. The same compound displayed a CC50 at 4 days in series [2] of more than 500 nM.

For the compound `COc1ccc(-c2ccc3c(=O)n(-c4ccc(Cl)c5c(NS(C)(=O)=O)nn(CC(F)(F)F)c45)c([C@H](Cc4cc(F)cc(F)c4)NC(=O)Cn4nc(C(F)F)c5c4C(F)(F)[C@@H]4C[C@H]54)nc3c2)nn1` (atropisomer, axis not shown) [Example 110, N-[(1S)-1-{3-[4-chloro-3-methanesulfonamido-1-(2,2,2-trifluoroethyl)-1H-indazol-7-yl]-7-(6-methoxypyridazin-3-yl)-4-oxo-3,4-dihydroquinazolin-2-yl}-2-(3,5-difluorophenyl)ethyl]-2-[(2S,4R)-9-(difluoromethyl)-5,5-difluoro-7,8-diazatricyclo[4.3.0.0^2,^4]nona-1(6),8-dien-7-yl]acetamide], in series [1], the pEC50 is 10.15. In addition, the CC50 at 4 days in series [2] is more than 500 nM.

For `Cc1cc(C)nc(-c2ccc3c(=O)n(-c4ccc(Cl)c5c(NS(C)(=O)=O)nn(CC(F)(F)F)c45)c([C@H](Cc4cc(F)cc(F)c4)NC(=O)Cn4nc(C(F)F)c5c4C(F)(F)[C@@H]4C[C@H]54)nc3c2)c1` (atropisomer, axis not shown) [Example 101, N-[(1S)-1-{3-[4-chloro-3-methanesulfonamido-1-(2,2,2-trifluoroethyl)-1H-indazol-7-yl]-7-(4,6-dimethylpyridin-2-yl)-4-oxo-3,4-dihydroquinazolin-2-yl}-2-(3,5-difluorophenyl)ethyl]-2-[(2S,4R)-9-(difluoromethyl)-5,5-difluoro-7,8-diazatricyclo[4.3.0.0^2,^4]nona-1(6),8-dien-7-yl]acetamide], the pEC50 in series [1] is 9.68. Further, the CC50 at 4 days in series [2] was more than 500 nM.

As to `COc1ccc(-c2ccc3c(=O)n(-c4ccc(Cl)c5c(NS(=O)(=O)C6CC6)nn(CC(F)F)c45)c([C@H](Cc4cc(F)cc(F)c4)NC(=O)Cn4nc(C(F)F)c5c4C(F)(F)[C@@H]4C[C@H]54)nc3c2)nn1` (atropisomer, axis not shown; (P)) [Example 90, N—((S)-1-((3P)-3-(4-chloro-3-(cyclopropanesulfonamido)-1-(2,2-difluoroethyl)-1H-indazol-7-yl)-7-(6-methoxypyridazin-3-yl)-4-oxo-3,4-dihydroquinazolin-2-yl)-2-(3,5-difluorophenyl)ethyl)-2-((3bS,4aR)-3-(difluoromethyl)-5,5-difluoro-3b,4,4a,5-tetrahydro-1H-cyclopropa[3,4]cyclopenta[1,2-c]pyrazol-1-yl)acetamide], the pEC50 in series [1] is 10.07. In series [2], this compound gave a cytotoxic concentration (CC50) at 4 days of more than 500 nM.

As to `CCc1cc(-c2ccc3c(=O)n(-c4ccc(Cl)c5c(NS(C)(=O)=O)nn(C)c45)c([C@H](Cc4cc(F)cc(F)c4)NC(=O)Cn4nc(C(F)F)c5c4C(F)(F)[C@@H]4C[C@H]54)nc3c2)nc(CC)n1` (atropisomer, axis not shown; (P)) [Example 68, N—((S)-1-((3P)-3-(4-chloro-1-methyl-3-(methylsulfonamido)-1H-indazol-7-yl)-7-(2,6-diethylpyrimidin-4-yl)-4-oxo-3,4-dihydroquinazolin-2-yl)-2-(3,5-difluorophenyl)ethyl)-2-((3bS,4aR)-3-(difluoromethyl)-5,5-difluoro-3b,4,4a,5-tetrahydro-1H-cyclopropa[3,4]cyclopenta[1,2-c]pyrazol-1-yl)acetamide], the pEC50 in series [1] was 9.74. The CC50 at 4 days in series [2] was more than 500 nM.

For `COc1cnc(-c2ccc3c(=O)n(-c4ccc(Cl)c5c(NS(C)(=O)=O)nn(CC(F)F)c45)c([C@H](Cc4cc(F)cc(F)c4)NC(=O)Cn4nc(C(F)F)c5c4C(F)(F)[C@@H]4C[C@H]54)nc3c2)nc1` (atropisomer, axis not shown) [Example 124, N-[(1S)-1-{3-[4-chloro-1-(2,2-difluoroethyl)-3-methanesulfonamido-1H-indazol-7-yl]-7-(5-methoxypyrimidin-2-yl)-4-oxo-3,4-dihydroquinazolin-2-yl}-2-(3,5-difluorophenyl)ethyl]-2-[(2S,4R)-9-(difluoromethyl)-5,5-difluoro-7,8-diazatricyclo[4.3.0.0^2,^4]nona-1(6),8-dien-7-yl]acetamide], in series [1], the pEC50 is 10.04. Further, in series [2], the CC50 at 4 days was more than 500 nM.

As to `Cn1nc(NS(C)(=O)=O)c2c(Cl)ccc(-n3c([C@H](Cc4cc(F)cc(F)c4)NC(=O)Cn4nc(C(F)F)c5c4C(F)(F)[C@@H]4C[C@H]54)nc4cc(-c5nccnc5CO)ccc4c3=O)c21` (atropisomer, axis not shown; (P)) [Example 18, N—((S)-1-((3P)-3-(4-chloro-1-methyl-3-(methylsulfonamido)-1H-indazol-7-yl)-7-(3-(hydroxymethyl)pyrazin-2-yl)-4-oxo-3,4-dihydroquinazolin-2-yl)-2-(3,5-difluorophenyl)ethyl)-2-((3bS,4aR)-3-(difluoromethyl)-5,5-difluoro-3b,4,4a,5-tetrahydro-1H-cyclopropa[3,4]cyclopenta[1,2-c]pyrazol-1-yl)acetamide], the pEC50 in series [1] is 10.00. In addition, the CC50 at 4 days in series [2] was more than 500 nM.

Regarding `CC(C)c1cccc(-c2ccc3c(=O)n(-c4ccc(Cl)c5c(NS(C)(=O)=O)nn(C)c45)c([C@H](Cc4cc(F)cc(F)c4)NC(=O)Cn4nc(C(F)F)c5c4C(F)(F)[C@@H]4C[C@H]54)nc3c2)n1` (atropisomer, axis not shown; (P)) [Example 46, N—((S)-1-((3P)-3-(4-chloro-1-methyl-3-(methylsulfonamido)-1H-indazol-7-yl)-7-(6-isopropylpyridin-2-yl)-4-oxo-3,4-dihydroquinazolin-2-yl)-2-(3,5-difluorophenyl)ethyl)-2-((3bS,4aR)-3-(difluoromethyl)-5,5-difluoro-3b,4,4a,5-tetrahydro-1H-cyclopropa[3,4]cyclopenta[1,2-c]pyrazol-1-yl)acetamide], the negative-log EC50 (pEC50) in series [1] was 9.64. The compound also showed a CC50 at 4 days in series [2] of more than 500 nM.
